From US8722849B2, “Polypeptides” (Novo Nordisk A/S, priority 2011, dated 2014)
Starred links: 1 amine or outer side, 2 acyl side, 3 side chain; linkers in the order of their positions; H or OH if unused. Positions of bridges follow the written chain, without caps; N, C: chain ends. Residues, ends and D or L forms follow the SMILES beside them. *: point of attachment. C20 diacid = O=C(O)CCCCCCCCCCCCCCCCCCC(=O)*; C18 diacid = O=C(O)CCCCCCCCCCCCCCCCC(=O)*; γGlu = O=C(O)[C@H](CCC(=O)[*:2])N[*:1]

How the values were obtained:
[1] = target: T1, human amylin receptor (amylin 3(a) receptor: human calcitonin receptor + RAMP-3) (Homo sapiens, UniProt O60896+P30988); experiment: Assay (II)a functional CRE-luciferase assay, human amylin receptor; assay type: cell-based; settings: Table 2; BHK amylin 3(a)-receptor/CRE-luc cells
T1 construct: expressed in transfected cells; host or cells: BHK570
T1 sequence (P30988 25-474): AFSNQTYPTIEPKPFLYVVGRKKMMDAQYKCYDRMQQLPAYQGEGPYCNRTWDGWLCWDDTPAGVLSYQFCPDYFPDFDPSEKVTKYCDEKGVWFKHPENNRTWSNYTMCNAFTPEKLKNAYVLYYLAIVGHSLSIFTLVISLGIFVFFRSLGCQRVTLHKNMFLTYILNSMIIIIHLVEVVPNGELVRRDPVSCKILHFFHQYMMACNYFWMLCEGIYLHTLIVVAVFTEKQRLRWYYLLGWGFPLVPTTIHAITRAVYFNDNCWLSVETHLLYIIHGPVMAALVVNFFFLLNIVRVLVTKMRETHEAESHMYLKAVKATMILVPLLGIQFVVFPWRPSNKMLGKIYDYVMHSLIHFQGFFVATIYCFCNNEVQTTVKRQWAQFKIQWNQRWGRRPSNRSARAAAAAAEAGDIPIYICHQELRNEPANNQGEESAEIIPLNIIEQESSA
T1 sequence (O60896 24-148 partner): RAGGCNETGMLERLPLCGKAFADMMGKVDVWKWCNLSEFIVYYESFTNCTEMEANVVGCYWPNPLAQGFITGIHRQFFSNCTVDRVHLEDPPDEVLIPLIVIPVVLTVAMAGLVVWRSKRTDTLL

[2] = Assay (III) ThT fibrillation assay for physical stability; assay type: physicochemical
In short: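 Freshly prepared formulations, pH-adjusted, with 1 μM ThT; four or eight replicates incubated at 37 °C under 960 rpm orbital shaking. Fluorescence (ex 444/em 485 nm) read every 20 min; […]. Peptide concentration measured by RP-HPLC before and after the run.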

SMILES	EC50 [1] [nM]	ThT pH 4.0 lag time (h) ([2]; ThT fibrillation assay)	ThT pH 4.0 lag time ([2]; Table 8) [h]	ThT pH 4.0 lag time ([2]; Table 9) [h]	ThT pH 4.0 lag time ([2]; ThT fibrillation assay) [h]
CC[C@H](C)[C@H](NC(=O)[C@@H]1CCCN1C(=O)CNC(=O)[C@H](Cc1ccccc1)NC(=O)[C@H](CC(N)=O)NC(=O)[C@H](CC(N)=O)NC(=O)[C@H](CO)NC(=O)[C@H](CO)NC(=O)[C@H](Cc1c[nH]cn1)NC(=O)[C@H](Cc1c[nH]cn1)NC(=O)[C@H](CC(C)C)NC(=O)[C@H](Cc1ccccc1)NC(=O)[C@H](CCC(=O)O)NC(=O)[C@H](C)NC(=O)[C@H](CC(C)C)NC(=O)[C@H](CCCNC(=N)N)NC(=O)[C@H](CCC(N)=O)NC(=O)[C@@H](NC(=O)[C@H](C)NC(=O)[C@@H]1CSSC[C@H](NC(=O)[C@H](CCCCN)NC(=O)[C@H](CCC(=O)O)NC(=O)CC[C@H](NC(=O)CCCCCCCCCCCCCCCCC(=O)O)C(=O)O)C(=O)N[C@@H](CC(N)=O)C(=O)N[C@@H]([C@@H](C)O)C(=O)N[C@@H](C)C(=O)N[C@@H]([C@@H](C)O)C(=O)N1)[C@@H](C)O)C(=O)N[C@@H](CC(C)C)C(=O)N1CCC[C@H]1C(=O)N1CCC[C@H]1C(=O)N[C@H](C(=O)N[C@@H](CC(N)=O)C(=O)N[C@H](C(=O)NCC(=O)N[C@@H](CO)C(=O)N[C@@H](CC(N)=O)C(=O)N[C@H](C(=O)N[C@@H](Cc1ccc(O)cc1)C(N)=O)[C@@H](C)O)C(C)C)[C@@H](C)O [Example 42, N-alpha-[(S)-4-Carboxy-4-(17-carboxyheptadecanoylamino)butyryl]-Glu-[Glu14,His17]-pramlintide] ({C18 diacid-γGlu}-EKCNTATCATQRLAEFLHHSSNNFGPILPPTNVGSNTY-NH2; disulfide 3-8 (inferred))	0.0739	7.3	–	–	–
CC[C@H](C)[C@H](NC(=O)[C@@H]1CCCN1C(=O)CNC(=O)[C@H](Cc1ccccc1)NC(=O)[C@H](CC(N)=O)NC(=O)[C@H](CC(N)=O)NC(=O)[C@H](CO)NC(=O)[C@H](CO)NC(=O)[C@H](Cc1c[nH]cn1)NC(=O)[C@H](Cc1c[nH]cn1)NC(=O)[C@H](CC(C)C)NC(=O)[C@H](Cc1ccccc1)NC(=O)[C@H](CCC(=O)O)NC(=O)[C@H](C)NC(=O)[C@H](CC(C)C)NC(=O)[C@H](CCCNC(=N)N)NC(=O)[C@H](CCC(N)=O)NC(=O)[C@@H](NC(=O)[C@H](C)NC(=O)[C@@H]1CSSC[C@H](NC(=O)[C@H](CCCCN)NC(=O)CC[C@H](NC(=O)CCCCCCCCCCCCCCCCCCC(=O)O)C(=O)O)C(=O)N[C@@H](CC(N)=O)C(=O)N[C@@H]([C@@H](C)O)C(=O)N[C@@H](C)C(=O)N[C@@H]([C@@H](C)O)C(=O)N1)[C@@H](C)O)C(=O)N[C@@H](CC(C)C)C(=O)N1CCC[C@H]1C(=O)N1CCC[C@H]1C(=O)N[C@H](C(=O)N[C@@H](CC(N)=O)C(=O)N[C@H](C(=O)NCC(=O)N[C@@H](CO)C(=O)N[C@@H](CC(N)=O)C(=O)N[C@H](C(=O)N[C@@H](Cc1ccc(O)cc1)C(N)=O)[C@@H](C)O)C(C)C)[C@@H](C)O [Example 27, N-alpha-[(S)-4-Carboxy-4-(19-carboxynonadecanoylamino)butyryl]-[Glu14,His17]-pramlintide] ({C20 diacid-γGlu}-KCNTATCATQRLAEFLHHSSNNFGPILPPTNVGSNTY-NH2; disulfide 2-7 (inferred))	0.121	12.3	–	–	–
CC[C@H](C)[C@H](NC(=O)[C@@H]1CCCN1C(=O)CNC(=O)[C@H](Cc1ccccc1)NC(=O)[C@H](CC(N)=O)NC(=O)[C@H](CC(N)=O)NC(=O)[C@H](CO)NC(=O)[C@H](CO)NC(=O)[C@H](Cc1c[nH]cn1)NC(=O)[C@H](Cc1c[nH]cn1)NC(=O)[C@H](CC(C)C)NC(=O)[C@H](Cc1ccccc1)NC(=O)[C@H](CCC(=O)O)NC(=O)[C@H](C)NC(=O)[C@H](CC(C)C)NC(=O)[C@H](CCCNC(=N)N)NC(=O)[C@H](CCC(N)=O)NC(=O)[C@@H](NC(=O)[C@H](C)NC(=O)[C@@H]1CSSC[C@H](NC(=O)[C@H](CCCCN)NC(=O)CC[C@H](NC(=O)CCCCCCCCCCCCCCCCC(=O)O)C(=O)O)C(=O)N[C@@H](CC(N)=O)C(=O)N[C@@H]([C@@H](C)O)C(=O)N[C@@H](C)C(=O)N[C@@H]([C@@H](C)O)C(=O)N1)[C@@H](C)O)C(=O)N[C@@H](CC(C)C)C(=O)N1CCC[C@H]1C(=O)N1CCC[C@H]1C(=O)N[C@H](C(=O)N[C@@H](CC(N)=O)C(=O)N[C@H](C(=O)NCC(=O)N[C@@H](CO)C(=O)N[C@@H](Cc1c[nH]cn1)C(=O)N[C@H](C(=O)N[C@@H](Cc1ccc(O)cc1)C(N)=O)[C@@H](C)O)C(C)C)[C@@H](C)O [Example 59, N-alpha-[(S)-4-Carboxy-4-(17-carboxyheptadecanoylamino)butyryl]-[Glu14,His17,His35]-pramlintide] ({C18 diacid-γGlu}-KCNTATCATQRLAEFLHHSSNNFGPILPPTNVGSHTY-NH2; disulfide 2-7 (inferred))	0.056	>45	>45	>45	>45
CC[C@H](C)[C@H](NC(=O)[C@@H]1CCCN1C(=O)CNC(=O)[C@H](Cc1ccccc1)NC(=O)[C@H](CC(N)=O)NC(=O)[C@H](CC(N)=O)NC(=O)[C@H](CO)NC(=O)[C@H](CO)NC(=O)[C@H](Cc1c[nH]cn1)NC(=O)[C@H](CCCNC(=N)N)NC(=O)[C@H](CC(C)C)NC(=O)[C@H](Cc1ccccc1)NC(=O)[C@H](CCC(=O)O)NC(=O)[C@H](C)NC(=O)[C@H](CC(C)C)NC(=O)[C@H](CCCNC(=N)N)NC(=O)[C@H](CCC(N)=O)NC(=O)[C@@H](NC(=O)[C@H](C)NC(=O)[C@@H]1CSSC[C@H](NC(=O)[C@H](Cc2c[nH]cn2)NC(=O)CC[C@H](NC(=O)CCCCCCCCCCCCCCCCCCC(=O)O)C(=O)O)C(=O)N[C@@H](CC(N)=O)C(=O)N[C@@H]([C@@H](C)O)C(=O)N[C@@H](C)C(=O)N[C@@H]([C@@H](C)O)C(=O)N1)[C@@H](C)O)C(=O)N[C@@H](CC(C)C)C(=O)N1CCC[C@H]1C(=O)N1CCC[C@H]1C(=O)N[C@H](C(=O)N[C@@H](CC(N)=O)C(=O)N[C@H](C(=O)NCC(=O)N[C@@H](CO)C(=O)N[C@@H](CC(N)=O)C(=O)N[C@H](C(=O)N1CCC[C@H]1C(N)=O)[C@@H](C)O)C(C)C)[C@@H](C)O [Example 90, N-alpha-[(S)-4-Carboxy-4-(19-carboxynonadecanoylamino)butyryl]-[His1,Glu14,Arg17,Pro37]-pramlintide] ({C20 diacid-γGlu}-HCNTATCATQRLAEFLRHSSNNFGPILPPTNVGSNTP-NH2; disulfide 2-7 (inferred); C-terminus assumed)	0.0325	>45	>45	>45	>45
